{"source": "paper PMC10011554", "about": "“BET inhibitor trotabresib in heavily pretreated patients with solid tumors and diffuse large B-cell lymphomas” (Nature Communications, 2023)", "assay": "Adverse events, DLTs, MTD and RP2D in phase I study CC-90010-ST-001 (NCI CTCAE v4.03)", "type": "in vivo", "experimental": "The primary endpoints of the study were the safety and tolerability of trotabresib, as well as the MTD and/or RP2D of trotabresib. Safety was assessed using the National Cancer Institute Common Terminology Criteria for Adverse Events v4.03[53].\nThe decision to evaluate additional subjects within a dose cohort, a higher dose cohort, intermediate dose cohorts, smaller dose increments, alternate dosing schedules, or declare an MTD will also be determined by the SRC, based on their review of clinical and laboratory safety […]\n7.2.4. Definition of a Subject Evaluable for DLT\nAfter the first dose is administered in any cohort during dose escalation, subjects in each cohort […]\nmore than one subject per day will be enrolled in a given dose escalation cohort.\nA subject evaluable for DLT is defined as one that: […]\nwithout experiencing a DLT,\nSubjects non-evaluable for DLT will be replaced. Additional subjects within any dose cohort may be enrolled at the discretion of the SRC. Intra-subject dose escalation will not be allowed during the DLT assessment period.\n7.2.5. Definition of Maximum Tolerated Dose (MTD) […]\nof MTD is described in Section 7.2.2.\nA variable dose cohort (eg, less frequent dosing) may be evaluated to accurately determine the MTD at the discretion of the SRC.\n7.2.6. Definition of Dose-Limiting Toxicity (DLT) […]\nused as a guide for the grading of severity of adverse events. A DLT is defined as any of the following toxicities occurring within the DLT assessment unless the event can clearly be […]\nDo se-limiting toxicities are described below:\n• Hyperglycemia meeting any of the following criteria:\n− Grade 3 or greater fasting hyperglycemia (> 250 mg/dL) lasting > 4 days despite optimal medical treatment\n(1 picture or pasted object on this page, not shown here)\n− Hyperglycemia associated with diabetic ketoacidosis or nonketotic hyperosmolar coma regardless of glucose level\n− Hyperglycemia that necessitates dose reduction despite dose interruption and resolution to ≤ grade 1 hyperglycemia within two weeks as described in […]\n• Any Grade 4 non-hematologic toxicity of any duration\n• Any non-hematologic toxicity Grade ≥ 3 EXCEPT for:\n− Grade 3 diarrhea, nausea, or vomiting of ≤ 3 days duration (with optimal medical […]\n− Grade 3 rash of the acneiform, pustular or maculopapular type which resolves to […]\nlevel with resumption of study drug at the same dose (with optimal medical […]\n− Grade 3 fatigue which resolves to Grade ≤ 2 within 7 days of study drug […]\nthe same dose (with optimal medical management).\n• Hematological toxicities as follows:\n− Grade 4 neutropenia lasting > 7 days\n− Grade 4 thrombocytopenia lasting > 7 days, Grade ≥ 3 thrombocytopenia with clinically significant bleeding\n• Any AE, Grade ≥ 2 not specified or exempt above, unless clearly determined to be unrelated to the drug, necessitating dose-level reduction during Cycle 1.\nIsolated laboratory changes without associated clinical signs or symptoms (eg, hypomagnesemia, hypermagnesemia, hypoalbuminemia, hypophosphatemia, lymphocyte count increased or decreased) may not be included in this definition. These findings will be discussed and reviewed […]\n7.2.7. Criteria for Dose Escalation in the Next Cohort of Subjects\nDuring Part A, the dose escalation criteria are described in Section 7.2.2.\n7.2.8. Definition of Stopping Criteria\nDuring Part A, the dose escalation stopping rules are in Section 7.2.2.\n7.2.9. Permitted Study Drug Adjustments\nDose reductions are permitted in any cycle, including Cycle 1.\n• Dose reductions that occur in Cycle 1 during dose escalation will constitute DLT as […]", "key": {"[1]": {"settings": "part A (N = 69), 02 Dec 2019 cutoff"}, "[2]": {"settings": "part A (n=69), as stated in protocol section 7.2.10.1"}, "[3]": {"settings": "part A, 30 mg 3-days-on/11-days off, 02 Dec 2019 cutoff"}, "[4]": {"settings": "part A, 45 mg 4-days-on/24-days-off, 02 Dec 2019 cutoff"}}}
{"smiles": "Cn1cc(-c2cc(S(C)(=O)=O)ccc2OCC2CC2)c2ccccc2c1=O", "note": "[trotabresib]", "values": [{"measurement": "TEAE dysgeusia", "setting": "[1]", "result": 29.0, "unit": "%"}, {"measurement": "TEAE fatigue", "setting": "[1]", "result": 24.6, "unit": "%"}, {"measurement": "TEAE headache", "setting": "[1]", "result": 10.1, "unit": "%"}, {"measurement": "TEAE hyperglycemia", "setting": "[1]", "result": 21.7, "unit": "%"}, {"measurement": "TEAE increased ALT", "setting": "[1]", "result": 13.0, "unit": "%"}, {"measurement": "TEAE maculopapular rash", "setting": "[1]", "result": 10.1, "unit": "%"}, {"measurement": "TEAE nausea", "setting": "[1]", "result": 40.6, "unit": "%"}, {"measurement": "TEAE stomatitis", "setting": "[1]", "result": 24.6, "unit": "%"}, {"measurement": "TEAE thrombocytopenia", "setting": "[1]", "result": 50.7, "unit": "%"}, {"measurement": "TEAE vomiting", "setting": "[1]", "result": 24.6, "unit": "%"}, {"measurement": "serious TEAE anemia", "setting": "[1]", "result": 2.9, "unit": "%"}, {"measurement": "serious TEAE arthralgia", "setting": "[1]", "result": 2.9, "unit": "%"}, {"measurement": "serious TEAE cognitive disorder", "setting": "[1]", "result": 4.3, "unit": "%"}, {"measurement": "serious TEAE decreased platelet count", "setting": "[1]", "result": 1.4, "unit": "%"}, {"measurement": "serious TEAE diarrhea", "setting": "[1]", "result": 2.9, "unit": "%"}, {"measurement": "serious TEAE fatigue", "setting": "[1]", "result": 2.9, "unit": "%"}, {"measurement": "serious TEAE general physical health deterioration", "setting": "[1]", "result": 2.9, "unit": "%"}, {"measurement": "serious TEAE headache", "setting": "[1]", "result": 4.3, "unit": "%"}, {"measurement": "serious TEAE noncardiac chest pain", "setting": "[1]", "result": 2.9, "unit": "%"}, {"measurement": "serious TEAE thrombocytopenia", "setting": "[1]", "result": 2.9, "unit": "%"}, {"measurement": "subjects with a TEAE leading to death (all not related)", "setting": "[1]", "result": 10.1, "unit": "%"}, {"measurement": "subjects with at least one Grade 3 or 4 TEAE", "setting": "[1]", "result": 58.0, "unit": "%"}, {"measurement": "subjects with at least one serious TEAE", "setting": "[1]", "result": 46.4, "unit": "%"}, {"measurement": "subjects with at least one treatment-related Grade 3 or 4 TEAE", "setting": "[1]", "result": 33.3, "unit": "%"}, {"measurement": "subjects with at least one treatment-related TEAE", "setting": "[1]", "result": 87.0, "unit": "%"}, {"measurement": "subjects with at least one treatment-related serious TEAE", "setting": "[1]", "result": 11.6, "unit": "%"}, {"measurement": "treatment-related Grade 3 or 4 TEAE anemia", "setting": "[1]", "result": 4.3, "unit": "%"}, {"measurement": "treatment-related Grade 3 or 4 TEAE decreased platelet count", "setting": "[1]", "result": 2.9, "unit": "%"}, {"measurement": "treatment-related Grade 3 or 4 TEAE fatigue", "setting": "[1]", "result": 2.9, "unit": "%"}, {"measurement": "treatment-related Grade 3 or 4 TEAE hyponatremia", "setting": "[1]", "result": 2.9, "unit": "%"}, {"measurement": "treatment-related Grade 3 or 4 TEAE increased ALT", "setting": "[1]", "result": 2.9, "unit": "%"}, {"measurement": "treatment-related Grade 3 or 4 TEAE thrombocytopenia", "setting": "[1]", "result": 13.0, "unit": "%"}, {"measurement": "treatment-related TEAE anemia", "setting": "[1]", "result": 11.6, "unit": "%"}, {"measurement": "treatment-related TEAE asthenia", "setting": "[1]", "result": 31.9, "unit": "%"}, {"measurement": "treatment-related TEAE decreased appetite", "setting": "[1]", "result": 17.4, "unit": "%"}, {"measurement": "treatment-related TEAE dermatitis acneiform", "setting": "[1]", "result": 13.0, "unit": "%"}, {"measurement": "treatment-related TEAE diarrhea", "setting": "[1]", "result": 39.1, "unit": "%"}, {"measurement": "treatment-related TEAE dysgeusia", "setting": "[1]", "result": 26.1, "unit": "%"}, {"measurement": "treatment-related TEAE fatigue", "setting": "[1]", "result": 21.7, "unit": "%"}, {"measurement": "treatment-related TEAE hyperglycemia", "setting": "[1]", "result": 11.6, "unit": "%"}, {"measurement": "treatment-related TEAE nausea", "setting": "[1]", "result": 39.1, "unit": "%"}, {"measurement": "treatment-related TEAE stomatitis", "setting": "[1]", "result": 23.2, "unit": "%"}, {"measurement": "treatment-related TEAE thrombocytopenia", "setting": "[1]", "result": 46.4, "unit": "%"}, {"measurement": "treatment-related TEAE vomiting", "setting": "[1]", "result": 17.4, "unit": "%"}, {"measurement": "treatment-related serious TEAE anemia", "setting": "[1]", "result": 2.9, "unit": "%"}, {"measurement": "treatment-related serious TEAE decreased platelet count", "setting": "[1]", "result": 1.4, "unit": "%"}, {"measurement": "treatment-related serious TEAE diarrhea", "setting": "[1]", "result": 2.9, "unit": "%"}, {"measurement": "treatment-related serious TEAE fatigue", "setting": "[1]", "result": 2.9, "unit": "%"}, {"measurement": "treatment-related serious TEAE thrombocytopenia", "setting": "[1]", "result": 2.9, "unit": "%"}, {"measurement": "Grade 3 or 4 TEAE decreased platelet count", "setting": "[2]", "result": 4.3, "unit": "%"}, {"measurement": "Grade 3 or 4 TEAE thrombocytopenia", "setting": "[2]", "result": 10.1, "unit": "%"}, {"measurement": "TEAE decreased platelet count", "setting": "[2]", "result": 18.8, "unit": "%"}, {"measurement": "subjects with at least one Grade 3 or 4 TEAE", "setting": "[2]", "result": 49.3, "unit": "%"}, {"measurement": "subjects with at least one TEAE Grade 3 or 4 related to study drug", "setting": "[3]", "result": 33.3, "unit": "%"}, {"measurement": "subjects with at least one TEAE related to study drug", "setting": "[3]", "result": 66.7, "unit": "%"}, {"measurement": "subjects with at least one TEAE Grade 3 or 4 related to study drug", "setting": "[4]", "result": 28.6, "unit": "%"}, {"measurement": "subjects with at least one TEAE related to study drug", "setting": "[4]", "result": 85.7, "unit": "%"}, {"measurement": "TRAE: ALT increased", "setting": "part A, any grade", "result": 7.25, "unit": "%"}, {"measurement": "TRAE: Anemia", "setting": "part A, any grade", "result": 11.59, "unit": "%"}, {"measurement": "TRAE: Any TRAE", "setting": "part A, any grade", "result": 86.96, "unit": "%"}, {"measurement": "TRAE: Asthenia", "setting": "part A, any grade", "result": 31.88, "unit": "%"}, {"measurement": "TRAE: Decreased appetite", "setting": "part A, any grade", "result": 17.39, "unit": "%"}, {"measurement": "TRAE: Dehydration", "setting": "part A, any grade", "result": 0, "unit": "%"}, {"measurement": "TRAE: Dermatitis acneiform", "setting": "part A, any grade", "result": 13.04, "unit": "%"}, {"measurement": "TRAE: Diarrhoea", "setting": "part A, any grade", "result": 39.13, "unit": "%"}, {"measurement": "TRAE: Dysgeusia", "setting": "part A, any grade", "result": 26.09, "unit": "%"}, {"measurement": "TRAE: Fatigue", "setting": "part A, any grade", "result": 21.74, "unit": "%"}, {"measurement": "TRAE: Hyperglycemia", "setting": "part A, any grade", "result": 11.59, "unit": "%"}, {"measurement": "TRAE: Hypertension", "setting": "part A, any grade", "result": 1.45, "unit": "%"}, {"measurement": "TRAE: Hyponatremia", "setting": "part A, any grade", "result": 4.35, "unit": "%"}, {"measurement": "TRAE: Hypophosphatemia", "setting": "part A, any grade", "result": 2.9, "unit": "%"}, {"measurement": "TRAE: Nausea", "setting": "part A, any grade", "result": 39.13, "unit": "%"}, {"measurement": "TRAE: Neutropenia", "setting": "part A, any grade", "result": 7.25, "unit": "%"}, {"measurement": "TRAE: Platelet count decreased", "setting": "part A, any grade", "result": 4.35, "unit": "%"}, {"measurement": "TRAE: Stomatitis", "setting": "part A, any grade", "result": 23.19, "unit": "%"}, {"measurement": "TRAE: Thrombocytopenia", "setting": "part A, any grade", "result": 46.38, "unit": "%"}, {"measurement": "TRAE: Vomiting", "setting": "part A, any grade", "result": 17.39, "unit": "%"}, {"measurement": "TRAE: ALT increased", "setting": "part A, grade 3", "result": 1.45, "unit": "%"}, {"measurement": "TRAE: Anemia", "setting": "part A, grade 3", "result": 4.35, "unit": "%"}, {"measurement": "TRAE: Any TRAE", "setting": "part A, grade 3", "result": 26.09, "unit": "%"}, {"measurement": "TRAE: Asthenia", "setting": "part A, grade 3", "result": 1.45, "unit": "%"}, {"measurement": "TRAE: Decreased appetite", "setting": "part A, grade 3", "result": 0, "unit": "%"}, {"measurement": "TRAE: Dehydration", "setting": "part A, grade 3", "result": 0, "unit": "%"}, {"measurement": "TRAE: Dermatitis acneiform", "setting": "part A, grade 3", "result": 0, "unit": "%"}, {"measurement": "TRAE: Diarrhoea", "setting": "part A, grade 3", "result": 1.45, "unit": "%"}, {"measurement": "TRAE: Dysgeusia", "setting": "part A, grade 3", "result": 0, "unit": "%"}, {"measurement": "TRAE: Fatigue", "setting": "part A, grade 3", "result": 2.9, "unit": "%"}]}
